According to patent US12448399B2, “Cereblon-based KRAS degrading PROTACs and uses related thereto” (Arvinas Operations, Inc., priority 2023, dated 2025):

Molecular target: T1, KRas-G12D (Homo sapiens, UniProt P01116, G12D)
T1 construct: insert the HiBiT tag onto the N-terminus of one or more of the endogenous KRas alleles; host or cells: AsPC-1 HiBiT-KRasG12D knock-in clone (one tagged allele, two untagged KRasG12D alleles)
Test: HiBiT Degradation Assay (G12D), AsPC-1 HiBiT-KRasG12D cells, 24 hr
Format: cell-based
Settings: for Dmax: ASPC1, AsPC-1 cells, maximum degradation observed; for DC50: AsPC-1 cells
In short: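 Degradation was read after 24 hr compound exposure (0.5% DMSO, 37° C) by Nano-Glo HiBiT lytic luminescence in AsPC-1 cells carrying a HiBiT tag on one of three KRasG12D alleles. Signal relative to DMSO gave DC50 and Dmax by 4-parameter fit; alamar blue fluorescence monitored cytotoxicity.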

T1 sequence (P01116 1-188 isoform P01116-2 G12D): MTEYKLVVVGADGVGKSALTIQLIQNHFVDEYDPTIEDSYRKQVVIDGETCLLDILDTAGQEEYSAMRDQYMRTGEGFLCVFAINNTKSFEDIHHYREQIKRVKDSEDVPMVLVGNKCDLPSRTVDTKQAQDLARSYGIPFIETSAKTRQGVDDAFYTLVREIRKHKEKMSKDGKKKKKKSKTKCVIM

SMILES | Dmax | DC50
C#Cc1c(F)ccc2cc(O)cc(-c3ncc4c(N5CC6CCC(C5)N6)nc(OC[C@@H]5C[C@@H](OC6CCN(CC7CCN(c8ccc9c(c8F)CN(C8CCC(=O)NC8=O)C9=O)CC7)CC6)CN5C)nc4c3F)c12 (stereo partly drawn) [Compound 122, 3-(5-{4-[(4-{[(3R,5S)-5-{[(4-{3,8-diazabicyclo[3.2.1]octan-3-yl}-7-(8-ethynyl-7-fluoro-3-hydroxynaphthalen-1-yl)-8-fluoropyrido[4,3-d]pyrimidin-2-yl)oxy]methyl}-1-methylpyrrolidin-3-yl]oxy}piperidin-1-yl)methyl]piperidin-1-yl}-4-fluoro-1-oxo-2,3-dihydro-1H-isoindol-2-yl)piperidine-2,6-dione] | > 70% | < 5.1 µM
C#Cc1c(F)ccc2cc(O)cc(-c3ncc4c(N5CC6CCC(C5)N6)nc(OCCN5CCC(CC6CCN(CC7CCN(c8ccc(F)c9c8CN(C8CCC(=O)NC8=O)C9=O)CC7)CC6)CC5)nc4c3F)c12 (stereo not drawn) [Compound 123] | > 70% | < 5.1 µM
C#Cc1c(F)ccc2cc(O)cc(-c3ncc4c(N5CC6CCC(C5)N6)nc(OCCN5CCC(F)(CC6CCN(CC7CCN(c8cccc9c8CN(C8CCC(=O)NC8=O)C9=O)CC7)CC6)CC5)nc4c3F)c12 (stereo not drawn) [Compound 124, 3-{4-[4-({4-[(1-{2-[(4-{3,8-diazabicyclo[3.2.1]octan-3-yl}-7-(8-ethynyl-7-fluoro-3-hydroxynaphthalen-1-yl)-8-fluoropyrido[4,3-d]pyrimidin-2-yl)oxy]ethyl}-4-fluoropiperidin-4-yl)methyl]piperidin-1-yl}methyl)piperidin-1-yl]-1-oxo-2,3-dihydro-1H-isoindol-2-yl}piperidine-2,6-dione] | > 70% | < 5.1 µM
C#Cc1c(F)ccc2cc(O)cc(-c3ncc4c(N5CC6CCC(C5)N6)nc(OCCN5CCC(CC6CCN(CC7(F)CCN(c8cccc9c8CN(C8CCC(=O)NC8=O)C9=O)CC7)CC6)CC5)nc4c3F)c12 (stereo not drawn) [Compound 125, 3-{4-[4-({4-[(1-{2-[(4-{3,8-diazabicyclo[3.2.1]octan-3-yl}-7-(8-ethynyl-7-fluoro-3-hydroxynaphthalen-1-yl)-8-fluoropyrido[4,3-d]pyrimidin-2-yl)oxy]ethyl}piperidin-4-yl)methyl]piperidin-1-yl}methyl)-4-fluoropiperidin-1-yl]-1-oxo-2,3-dihydro-1H-isoindol-2-yl}piperidine-2,6-dione] | – | < 5.1 µM
C#Cc1c(F)ccc2cc(O)cc(-c3ncc4c(N5CC6CCC(C5)N6)nc(OCCN5CCC(CN6CCC(CC7CCN(c8cccc9c8CN(C8CCC(=O)NC8=O)C9=O)CC7)CC6)CC5)nc4c3F)c12 (stereo not drawn) [Compound 126, 3-{4-[4-({1-[(1-{2-[(4-{3,8-diazabicyclo[3.2.1]octan-3-yl}-7-(8-ethynyl-7-fluoro-3-hydroxynaphthalen-1-yl)-8-fluoropyrido[4,3-d]pyrimidin-2-yl)oxy]ethyl}piperidin-4-yl)methyl]piperidin-4-yl}methyl)piperidin-1-yl]-1-oxo-2,3-dihydro-1H-isoindol-2-yl}piperidine-2,6-dione] | > 70% | < 5.1 µM
C#Cc1c(F)ccc2cc(O)cc(-c3nc(N4CC5CCC(C4)N5)c4cnc(OCCN5CCC6(CC5)CN(CC5CCN(c7ccc8c(c7F)CN(C7CCC(=O)NC7=O)C8=O)CC5)C6)nc4c3F)c12 (stereo not drawn) [Compound 127] | – | < 5.1 µM
C#Cc1c(F)ccc2cc(O)cc(-c3ncc4c(N5CC6CCC(C5)N6)nc(OCCN5CCC(CCC6CCN(c7cccc8c7CN(C7CCC(=O)NC7=O)C8=O)CC6)CC5)nc4c3F)c12 (stereo not drawn) [Compound 128, 3-(4-{4-[2-(1-{2-[(4-{3,8-diazabicyclo[3.2.1]octan-3-yl}-7-(8-ethynyl-7-fluoro-3-hydroxynaphthalen-1-yl)-8-fluoropyrido[4,3-d]pyrimidin-2-yl)oxy]ethyl}piperidin-4-yl)ethyl]piperidin-1-yl}-1-oxo-2,3-dihydro-1H-isoindol-2-yl)piperidine-2,6-dione] | > 70% | 0.1 to 5.25 µM
C#Cc1c(F)ccc2cc(O)cc(-c3ncc4c(N5CC6CCC(C5)N6)nc(OCCN5CCC(CC6CCN(c7cccc8c7n(C)c(=O)n8C7CCC(=O)NC7=O)CC6)CC5)nc4c3F)c12 (stereo not drawn) [Compound 129, 3-(4-{4-[(1-{2-[(4-{3,8-diazabicyclo[3.2.1]octan-3-yl}-7-(8-ethynyl-7-fluoro-3-hydroxynaphthalen-1-yl)-8-fluoropyrido[4,3-d]pyrimidin-2-yl)oxy]ethyl}piperidin-4-yl)methyl]piperidin-1-yl}-3-methyl-2-oxo-2,3-dihydro-1H-1,3-benzodiazol-1-yl)piperidine-2,6-dione] | > 70% | < 5.1 µM
C#Cc1c(F)ccc2cc(O)cc(-c3ncc4c(N5CC6CCC(C5)N6)nc(OCCN5CCC(CC6CCN(CC7CCN(c8cc(F)cc9c8CN(C8CCC(=O)NC8=O)C9=O)CC7)CC6)CC5)nc4c3F)c12 (stereo not drawn) [Compound 130, 3-{4-[4-({4-[(1-{2-[(4-{3,8-diazabicyclo[3.2.1]octan-3-yl}-7-(8-ethynyl-7-fluoro-3-hydroxynaphthalen-1-yl)-8-fluoropyrido[4,3-d]pyrimidin-2-yl)oxy]ethyl}piperidin-4-yl)methyl]piperidin-1-yl}methyl)piperidin-1-yl]-6-fluoro-1-oxo-2,3-dihydro-1H-isoindol-2-yl}piperidine-2,6-dione] | > 70% | < 5.1 µM
C#Cc1c(F)ccc2cc(O)cc(-c3ncc4c(N5CC6CCC(C5)N6)nc(OCCN5CCC(CC6(F)CCN(CC7CCN(c8cccc9c8CN(C8CCC(=O)NC8=O)C9=O)CC7)CC6)CC5)nc4c3F)c12 (stereo not drawn) [Compound 131, 3-{4-[4-({4-[(1-{2-[(4-{3,8-diazabicyclo[3.2.1]octan-3-yl}-7-(8-ethynyl-7-fluoro-3-hydroxynaphthalen-1-yl)-8-fluoropyrido[4,3-d]pyrimidin-2-yl)oxy]ethyl}piperidin-4-yl)methyl]-4-fluoropiperidin-1-yl}methyl)piperidin-1-yl]-1-oxo-2,3-dihydro-1H-isoindol-2-yl}piperidine-2,6-dione] | > 70% | < 5.1 µM
C#Cc1c(F)ccc2cc(O)cc(-c3ncc4c(N5CC6CCC(C5)N6)nc(OCCN5CCC6(CC5)CCN(CC5CCN(c7cccc8c7CN(C7CCC(=O)NC7=O)C8=O)CC5)CC6)nc4c3F)c12 (stereo not drawn) [Compound 132, 3-(4-{4-[(9-{2-[(4-{3,8-diazabicyclo[3.2.1]octan-3-yl}-7-(8-ethynyl-7-fluoro-3-hydroxynaphthalen-1-yl)-8-fluoropyrido[4,3-d]pyrimidin-2-yl)oxy]ethyl}-3,9-diazaspiro[5.5]undecan-3-yl)methyl]piperidin-1-yl}-1-oxo-2,3-dihydro-1H-isoindol-2-yl)piperidine-2,6-dione] | > 70% | < 5.1 µM
C#Cc1c(F)ccc2cc(O)cc(-c3ncc4c(N5CC6CCC(C5)N6)nc(OCCN5CCC(CC6CCN(CC7CCN(c8cccc9c8n(C)c(=O)n9C8CCC(=O)NC8=O)CC7)CC6)CC5)nc4c3F)c12 (stereo not drawn) [Compound 133, 3-{4-[4-({4-[(1-{2-[(4-{3,8-diazabicyclo[3.2.1]octan-3-yl}-7-(8-ethynyl-7-fluoro-3-hydroxynaphthalen-1-yl)-8-fluoropyrido[4,3-d]pyrimidin-2-yl)oxy]ethyl}piperidin-4-yl)methyl]piperidin-1-yl}methyl)piperidin-1-yl]-3-methyl-2-oxo-2,3-dihydro-1H-1,3-benzodiazol-1-yl}piperidine-2,6-dione] | > 70% | < 5.1 µM
C#Cc1c(F)ccc2cc(O)cc(-c3nc(N4CC5CCC(C4)N5)c4cnc(OCCN5CCC6(CC5)CCN(CC5CCN(c7ccc8c(c7)CN(C7CCC(=O)NC7=O)C8=O)CC5)CC6)nc4c3F)c12 (stereo not drawn) [Compound 134] | > 70% | < 5.1 µM
C#Cc1c(F)ccc2cc(O)cc(-c3ncc4c(N5CC6CCC(C5)N6)nc(OCCN5CCC6(CC5)CN(CC5CCN(c7cccc8c7CN(C7CCC(=O)NC7=O)C8=O)CC5)C6)nc4c3F)c12 (stereo not drawn) [Compound 135, 3-(4-{4-[(7-{2-[(4-{3,8-diazabicyclo[3.2.1]octan-3-yl}-7-(8-ethynyl-7-fluoro-3-hydroxynaphthalen-1-yl)-8-fluoropyrido[4,3-d]pyrimidin-2-yl)oxy]ethyl}-2,7-diazaspiro[3.5]nonan-2-yl)methyl]piperidin-1-yl}-1-oxo-2,3-dihydro-1H-isoindol-2-yl)piperidine-2,6-dione] | – | 0.25 to 1 µM
C#Cc1c(F)ccc2cc(O)cc(-c3ncc4c(N5CC6CCC(C5)N6)nc(OCCN5CCC(CN6CCN(CC7CCN(c8cccc9c8CN(C8CCC(=O)NC8=O)C9=O)CC7)CC6)CC5)nc4c3F)c12 (stereo not drawn) [Compound 136, 3-{4-[4-({4-[(1-{2-[(4-{3,8-diazabicyclo[3.2.1]octan-3-yl}-7-(8-ethynyl-7-fluoro-3-hydroxynaphthalen-1-yl)-8-fluoropyrido[4,3-d]pyrimidin-2-yl)oxy]ethyl}piperidin-4-yl)methyl]piperazin-1-yl}methyl)piperidin-1-yl]-1-oxo-2,3-dihydro-1H-isoindol-2-yl}piperidine-2,6-dione] | > 70% | < 5.1 µM
CCc1c(F)ccc2cc(O)cc(-c3ncc4c(N5CC6CCC(C5)N6)nc(OCCN5CCC(CC6CCN(CC7CCN(c8cccc9c8CN(C8CCC(=O)NC8=O)C9=O)CC7)CC6)CC5)nc4c3F)c12 (stereo not drawn) [Compound 137, 3-{4-[4-({4-[(1-{2-[(4-{3,8-diazabicyclo[3.2.1]octan-3-yl}-7-(8-ethyl-7-fluoro-3-hydroxynaphthalen-1-yl)-8-fluoropyrido[4,3-d]pyrimidin-2-yl)oxy]ethyl}piperidin-4-yl)methyl]piperidin-1-yl}methyl)piperidin-1-yl]-1-oxo-2,3-dihydro-1H-isoindol-2-yl}piperidine-2,6-dione] | – | < 5.1 µM
C#Cc1c(F)ccc2cc(O)cc(-c3ncc4c(N5CC6CCC(C5)N6)nc(OCCN5CCC(CC6CCN(CC7CCN(c8ccc9c(c8)CN(C8CCC(=O)NC8=O)C9=O)CC7)CC6)CC5)nc4c3F)c12 (stereo not drawn) [Compound 138] | > 70% | < 5.1 µM
